The record followed here is patent US20130281298A1 (priority 2012, published 2013).

The test relates to citrus greening (HLB). Format: in vivo, orange tree.

`OC[C@H]1O[C@H](O[C@H]2O[C@H](CO)[C@@H](O)[C@H](O)[C@H]2O)[C@H](O)[C@@H](O)[C@@H]1O` [trehalose]: the “new leaf formation on apparently dead branches” value (as late as four months after treatment, tree seriously afflicted with citrus greening) was “new leaves that are formed even on apparently dead branches”. In addition, for the setting “four months after one foliar treatment to the canopy of leaves, 1 gram trehalose per 1 gallon of water, 100 gallons/acre”, the “condition of tree after foliar treatment” value is given as “nearly complete renewal of the tree”. Besides, the development of flowers entry (three months after single foliar treatment) is “prolific development of flowers”.
